Structures can show the parent of a compound that is named as a salt.
Tests used:
Conditions in all cases: 72 h
HepG2 [1] = experiment: relative viability EC50 (midpoint between 100% and the lowest measured viability); higher = less toxic
Calu-3 [2] = experiment: as above
U2OS [3] = experiment: as above
Vero E6 [4] = experiment: as above
Caco-2 [5] = experiment: as above
HepG2 [6] = experiment: drug sensitivity score (DSS) for viability; higher = more toxic; extreme values may be limits of the assay
Calu-3 [7] = experiment: as above
U2OS [8] = experiment: as above
Vero E6 [9] = experiment: as above
Caco-2 [10] = experiment: as above
HepG2 [11] = experiment: cell viability relative to DMSO; higher = less toxic
Calu-3 [12] = experiment: as above
U2OS [13] = experiment: as above
Vero E6 [14] = experiment: as above
Caco-2 [15] = experiment: as above

Structure (SMILES)	relative viability EC50 (HepG2 [1]) [µM]	relative viability EC50 (Calu-3 [2]) [µM]	relative viability EC50 (U2OS [3]) [µM]	relative viability EC50 (Vero E6 [4]) [µM]	relative viability EC50 (Caco-2 [5]) [µM]	drug sensitivity score (HepG2 [6])	drug sensitivity score (Calu-3 [7])	drug sensitivity score (U2OS [8])	drug sensitivity score (Vero E6 [9])	drug sensitivity score (Caco-2 [10])	cell viability (HepG2 [11]; 1 nM) [%]	cell viability (HepG2 [11]; 10 nM) [%]	cell viability (HepG2 [11]; 100 nM) [%]	cell viability (HepG2 [11]; 1000 nM) [%]	cell viability (HepG2 [11]; 10000 nM) [%]	cell viability (Calu-3 [12]; 1 nM) [%]	cell viability (Calu-3 [12]; 10 nM) [%]	cell viability (Calu-3 [12]; 100 nM) [%]	cell viability (Calu-3 [12]; 1000 nM) [%]	cell viability (Calu-3 [12]; 10000 nM) [%]	cell viability (U2OS [13]; 1 nM) [%]	cell viability (U2OS [13]; 10 nM) [%]	cell viability (U2OS [13]; 100 nM) [%]	cell viability (U2OS [13]; 1000 nM) [%]	cell viability (U2OS [13]; 10000 nM) [%]	cell viability (Vero E6 [14]; 1 nM) [%]	cell viability (Vero E6 [14]; 10 nM) [%]	cell viability (Vero E6 [14]; 100 nM) [%]	cell viability (Vero E6 [14]; 1000 nM) [%]	cell viability (Vero E6 [14]; 10000 nM) [%]	cell viability (Caco-2 [15]; 1 nM) [%]	cell viability (Caco-2 [15]; 10 nM) [%]	cell viability (Caco-2 [15]; 100 nM) [%]	cell viability (Caco-2 [15]; 1000 nM) [%]	cell viability (Caco-2 [15]; 10000 nM) [%]
CCCCCOc1c(OC)ccc2cc(C(=O)NCc3ccc4c(c3)OCO4)c(=O)[nH]c12 [JTE-907]	> 10	> 10	> 10	> 10	> 10	0	0	0	0	0.8	95	97.4	100	115	103	102	93.9	97.3	105	90.8	100	99.7	103	99.5	97.4	90.8	99.8	94.5	94.3	110	90.9	91.1	99.9	101	75.7
COc1cc2nccc(Oc3ccc(NC(=O)Nc4ccc(F)cc4F)c(F)c3)c2cc1OC [KI-8751]	> 10	> 10	> 10	> 10	> 10	0	0	0	0	0	97.5	116	106	101	95.5	94.1	97.6	86.8	95.7	93.1	98.8	97.6	99.2	99.2	102	101	107	98.9	107	107	95.8	91.8	102	92.4	99.6
CC(C)C(=O)Nc1ncc(-c2cc(C(F)F)nn2-c2c(Cl)cccc2Cl)s1 [LIMKi-3]	> 10	> 10	> 10	> 10	> 10	0	0	0	0	0	110	98	104	106	110	88.4	92.7	98.5	118	115	98.1	106	96.3	100	88.9	106	101	101	92.2	96	91.4	105	92.8	94.6	97.3
COC(=O)C(c1ccccc1)C1CCCCN1 (stereo not given) [METHYLPHENIDATE HYDROCHLORIDE]	> 10	> 10	> 10	> 10	> 10	0	0	0	0	0	108	95.2	91.4	102	99	100	102	91.1	105	101	96.5	102	92.1	95.3	98.6	99.7	97.3	98.5	98.9	102	97	99.5	91.2	103	104
